The text below walks through data of publication PMC11200976, “Pitavastatin Calcium Confers Fungicidal Properties to Fluconazole by Inhibiting Ubiquinone Biosynthesis and Generating Reactive Oxygen Species” (Antioxidants, 2024).

Where a name gives a salt, the structure may show the parent alone.

The test deals with C. albicans. The experiment in a line: Broth microdilution assay of synergistic lethality with 4 μg/mL FLC (recovery on drug-free YPD). To be noted: concentration of the compound that is synergistically lethal with 4 μg/mL FLC; C. albicans; recovery on drug-free YPD. The test is classed as cell-based, Candida albicans.

`CC(O)C(=O)O.CCOc1ccc2nc3cc(N)ccc3c(N)c2c1.O` [Ethacridine (lactate monohydrate)]: the Synergistic lethal concentrations worked out at 100 µM. In the case of `CCOC(=O)c1cncn1[C@H](C)c1ccccc1.Cl` [Etomidate (hydrochloride)] it was 100 µM; in that of `C=CCc1ccc(O)c(OC)c1` [Eugenol], 100 µM; in that of `Cc1cnc(Nc2ccc(OCCN3CCCC3)cc2)nc1Nc1cccc(S(=O)(=O)NC(C)(C)C)c1` [Fedratinib], 100 µM. For `CCOC(=O)C1=C(C)NC(C)=C(C(=O)OC)C1c1cccc(Cl)c1Cl` (stereo not shown) [Felodipine], the Synergistic lethal concentrations stood at 100 µM. For `CC(C(=O)[O-])c1cccc(Oc2ccccc2)c1.CC(C(=O)[O-])c1cccc(Oc2ccccc2)c1.O.O.[Ca+2]` (stereo not shown) [Fenoprofen (Calcium hydrate)], the Synergistic lethal concentrations stood at 100 µM. The result for `O=C(O)c1ccccc1Nc1cccc(C(F)(F)F)c1` [Flufenamic acid] reads 100 µM; that for `Cl.Cl.Fc1ccc(C(c2ccc(F)cc2)N2CCN(C/C=C/c3ccccc3)CC2)cc1` [Flunarizine (dihydrochloride)], 50 µM; that for `CC(C)n1c(/C=C/C(O)CC(O)CC(=O)[O-])c(-c2ccc(F)cc2)c2ccccc21.[Na+]` (stereo not shown) [Fluvastatin (sodium)], 6.25 µM. In the case of `COCCCC/C(=N\OCCN)c1ccc(C(F)(F)F)cc1.O=C(O)/C=C\C(=O)O` [Fluvoxamine (maleate)] it was 100 µM; in that of `O=C(CCCN1CCC(O)(c2ccc(Cl)cc2)CC1)c1ccc(F)cc1` [Haloperidol], 100 µM.

Take `CCCCCCc1ccc(O)cc1O` [Hexylresorcinol]: the Synergistic lethal concentrations is 12.5 µM.

For `Cl.Cl.OCCOCCN1CCN(C(c2ccccc2)c2ccc(Cl)cc2)CC1` (stereo not shown) [Hydroxyzine (dihydrochloride)], the Synergistic lethal concentrations was 100 µM.

On to `O=C(O)c1cc2ccccc2c(Cc2c(O)c(C(=O)O)cc3ccccc23)c1O.OCCOCCN1CCN(C(c2ccccc2)c2ccc(Cl)cc2)CC1` [Hydroxyzine (pamoate)], for which the Synergistic lethal concentrations was 100 µM. In the case of `COc1ccc2c(c1)c(CC(=O)O)c(C)n2C(=O)c1ccc(Cl)cc1` [Indomethacin] it was 100 µM; in that of `C/C=C(/C)C(=O)O[C@H]1C(C)=C[C@]23C(=O)[C@@H](C=C(CO)[C@@H](O)[C@]12O)[C@H]1[C@@H](C[C@H]3C)C1(C)C` [Ingenol Mebutate], 100 µM; in that of `COC(=O)N[C@H](C(=O)N1CC2(CC2)C[C@H]1c1nc(-c2ccc3c(c2)C(F)(F)c2cc(-c4ccc5[nH]c([C@@H]6[C@H]7CC[C@H](C7)N6C(=O)[C@@H](NC(=O)OC)C(C)C)nc5c4)ccc2-3)c[nH]1)C(C)C` [Ledipasvir], 100 µM. Turning to `CCOC(=O)C1=C(COCCN)NC(C)=C(C(=O)OC)[C@@H]1c1ccccc1Cl.O=S(=O)(O)c1ccccc1` [Levamlodipine besylate], the Synergistic lethal concentrations amounted to 100 µM.

Take `O=C(NC1CCN(CCCCC2(C(=O)NCC(F)(F)F)c3ccccc3-c3ccccc32)CC1)c1ccccc1-c1ccc(C(F)(F)F)cc1` [Lomitapide]: the Synergistic lethal concentrations stood at 6.25 µM. The result for `CC[C@H](C)C(=O)O[C@H]1C[C@@H](C)C=C2C=C[C@H](C)[C@H](CC[C@@H]3C[C@@H](O)CC(=O)O3)[C@H]21` [Lovastatin] reads 100 µM; that for `CN1CCN(C2=Nc3ccccc3Oc3ccc(Cl)cc32)CC1` [Loxapine], 100 µM; that for `C=CCc1ccc(O)c(-c2cc(CC=C)ccc2O)c1` [Magnolol], 12.5 µM. In the case of `CNCCCC12CCC(c3ccccc31)c1ccccc12.Cl` [Maprotiline (hydrochloride)] it was 50 µM; in that of `CN1CCc2c(c3ccccc3n2Cc2ccccc2)C1.CN1CCc2c(c3ccccc3n2Cc2ccccc2)C1.O=S(=O)(O)c1cccc2c(S(=O)(=O)O)cccc12` [Mebhydrolin (napadisylate)], 100 µM; in that of `CN1CCc2c(c3ccccc3n2Cc2ccccc2)C1` [Mebhydrolin], 100 µM. The result for `Cl.OC(c1cc(C(F)(F)F)nc2c(C(F)(F)F)cccc12)C1CCCCN1` (stereo not shown) [Mefloquine (hydrochloride)] reads 25 µM. For the molecule `CN(C)CCC=C1c2ccccc2C(C)(C)c2ccccc21.Cl` [Melitracen (hydrochloride)], the Synergistic lethal concentrations came to 50 µM.

For the molecule `CC1=CC(=O)c2ccccc2C1=O` [Menadione], the Synergistic lethal concentrations was found to be 100 µM.

As for `c1ccc2c(c1)Sc1ccccc1N2CC1CN2CCC1CC2` (stereo not shown) [Mequitazine], the Synergistic lethal concentrations came to 25 µM. With `CN1C[C@H](CNC(=O)OCc2ccccc2)C[C@@H]2c3cccc4c3c(cn4C)C[C@H]21` [Metergoline], the Synergistic lethal concentrations was determined as 100 µM. On to `CN1CCCC(CC2c3ccccc3Sc3ccccc32)C1.Cl.O` (stereo not shown) [Metixene hydrochloride hydrate], for which the Synergistic lethal concentrations came to 25 µM. In the case of `CCCCCCCCCCCCCCCCOP(=O)([O-])OCC[N+](C)(C)C` [Miltefosine], the Synergistic lethal concentrations stood at 100 µM.

Turning to `CCCOc1ccc(S(=O)(=O)N2CCN(CCO)CC2)cc1-c1nc2c(CCC)cn(CC)c2c(=O)[nH]1.Cl.Cl` [Mirodenafil (dihydrochloride)], the Synergistic lethal concentrations is 100 µM. On to `NC(=O)Cc1cccc(C(=O)c2ccccc2)c1N` [Nepafenac], for which the Synergistic lethal concentrations stood at 100 µM. In the case of `COC(=O)C1=C(C#N)NC(C)=C(C(=O)OC(C)C)C1c1cccc([N+](=O)[O-])c1` (stereo not shown) [Nilvadipine] it was 100 µM. Consider `COC(=O)c1ccc2c(c1)NC(=O)/C2=C(\Nc1ccc(N(C)C(=O)CN2CCN(C)CC2)cc1)c1ccccc1` [Nintedanib], for which the Synergistic lethal concentrations was 100 µM. As to `CNCCC=C1c2ccccc2CCc2ccccc21.Cl` [Nortriptyline (hydrochloride)], the Synergistic lethal concentrations came to 100 µM. Turning to `CCCCCCCCN=c1ccn(CCCCCCCCCCn2ccc(=NCCCCCCCC)cc2)cc1.Cl.Cl` [Octenidine (dihydrochloride)], the Synergistic lethal concentrations was 1.5625 µM. With `C=CC(=O)Nc1cccc(Oc2nc(Nc3ccc(N4CCN(C)CC4)cc3)nc3ccsc23)c1` [Olmutinib], the Synergistic lethal concentrations was 100 µM.

On to `C=CC(=O)Nc1cc(Nc2nccc(-c3cn(C)c4ccccc34)n2)c(OC)cc1N(C)CCN(C)C.CS(=O)(=O)O.CS(=O)(=O)O` [Osimertinib (dimesylate)], for which the Synergistic lethal concentrations stood at 100 µM.

For `C=CC(=O)Nc1cc(Nc2nccc(-c3cn(C)c4ccccc34)n2)c(OC)cc1N(C)CCN(C)C.CS(=O)(=O)O` [Osimertinib mesylate], the Synergistic lethal concentrations was found to be 50 µM.

Consider `C=CC(=O)Nc1cc(Nc2nccc(-c3cn(C)c4ccccc34)n2)c(OC)cc1N(C)CCN(C)C` [Osimertinib], for which the Synergistic lethal concentrations is 100 µM. For `CCCCCCCCOc1ccccc1C(=O)Nc1ccc(C(=O)OCC[N+](C)(CC)CC)cc1.[Br-]` [Otilonium (bromide)], the Synergistic lethal concentrations stood at 6.25 µM. Take `O=C(O)CCc1nc(-c2ccccc2)c(-c2ccccc2)o1` [Oxaprozin]: the Synergistic lethal concentrations amounted to 100 µM. `CN(C(=O)CN(CCO)CC(=O)N(C)C(C)(C)Cc1ccccc1)C(C)(C)Cc1ccccc1` [Oxethazaine]: the Synergistic lethal concentrations amounted to 50 µM.

Regarding `Cc1[nH]c2ccccc2c1CCNCc1ccc(/C=C/C(=O)NO)cc1` [Panobinostat], the Synergistic lethal concentrations was found to be 100 µM. On to `Cl.Fc1ccc([C@@H]2CCNC[C@H]2COc2ccc3c(c2)OCO3)cc1` [Paroxetine (hydrochloride)], for which the Synergistic lethal concentrations is 50 µM. As for `C1CCC(C(CC2CCCCN2)C2CCCCC2)CC1` (stereo not shown) [Perhexiline maleate], the Synergistic lethal concentrations was 50 µM. In the case of `N#Cc1ccc2c(c1)N(CCCN1CCC(O)CC1)c1ccccc1S2` [Pericyazine] it was 100 µM; in that of `OCCN1CCN(CCCN2c3ccccc3Sc3ccc(Cl)cc32)CC1` [Perphenazine], 25 µM; in that of `CN1CCC(=C2c3ccccc3Sc3ccccc32)CC1` [Pimethixene maleate], 12.5 µM. The result for `Cc1cc(CC(C)CC(C)(C)C)n(O)c(=O)c1.NCCO` (stereo not shown) [Piroctone olamine] reads 100 µM. With `O=C([O-])C[C@H](O)C[C@H](O)/C=C/c1c(C2CC2)nc2ccccc2c1-c1ccc(F)cc1.O=C([O-])C[C@H](O)C[C@H](O)/C=C/c1c(C2CC2)nc2ccccc2c1-c1ccc(F)cc1.[Ca+2]` [Pitavastatin (Calcium)], the Synergistic lethal concentrations turned out to be 1.5625 µM.

On to `CN1CCC(=C2c3ccccc3CCc3sccc32)CC1` [Pizotifen], for which the Synergistic lethal concentrations was 100 µM. For the molecule `Cc1ccc(C(=O)Nc2ccc(CN3CCN(C)CC3)c(C(F)(F)F)c2)cc1C#Cc1cnc2cccnn12` [Ponatinib], the Synergistic lethal concentrations turned out to be 100 µM. For `CO[C@]1(C(=O)N[C@@H](C)c2ccc(-n3cc(F)cn3)nc2)CC[C@H](c2nc(C)cc(Nc3cc(C)[nH]n3)n2)CC1` [Pralsetinib], the Synergistic lethal concentrations is 100 µM. For `CCCCOc1ccc(OCCCN2CCOCC2)cc1.Cl` [Pramocaine (hydrochloride)], the Synergistic lethal concentrations worked out at 100 µM. Turning to `[H]/N=C(\N/C(=N/[H])Nc1ccc(Cl)cc1)NC(C)C` [Proguanil], the Synergistic lethal concentrations was 100 µM. The result for `CNCCCC1c2ccccc2C=Cc2ccccc21.Cl` [Protriptyline (hydrochloride)] reads 100 µM; that for `O=C(O)/C=C/C(=O)O.OCCOCCN1CCN(C2=Nc3ccccc3Sc3ccccc32)CC1.OCCOCCN1CCN(C2=Nc3ccccc3Sc3ccccc32)CC1` [Quetiapine (hemifumarate)], 100 µM; that for `OCCOCCN1CCN(C2=Nc3ccccc3Sc3ccccc32)CC1` [Quetiapine], 100 µM.
